Test results taken from patent US20120142705A1, “ISATIN AND OXINDOLE COMPOUNDS” (priority 2010, published 2012).

Target: T1, Recombinant human liver GK1 (GST-GK) (Homo sapiens, UniProt P35557)
T1 construct: made in house; host or cells: E. coli
T1 sequence (P35557 1-466 isoform P35557-2): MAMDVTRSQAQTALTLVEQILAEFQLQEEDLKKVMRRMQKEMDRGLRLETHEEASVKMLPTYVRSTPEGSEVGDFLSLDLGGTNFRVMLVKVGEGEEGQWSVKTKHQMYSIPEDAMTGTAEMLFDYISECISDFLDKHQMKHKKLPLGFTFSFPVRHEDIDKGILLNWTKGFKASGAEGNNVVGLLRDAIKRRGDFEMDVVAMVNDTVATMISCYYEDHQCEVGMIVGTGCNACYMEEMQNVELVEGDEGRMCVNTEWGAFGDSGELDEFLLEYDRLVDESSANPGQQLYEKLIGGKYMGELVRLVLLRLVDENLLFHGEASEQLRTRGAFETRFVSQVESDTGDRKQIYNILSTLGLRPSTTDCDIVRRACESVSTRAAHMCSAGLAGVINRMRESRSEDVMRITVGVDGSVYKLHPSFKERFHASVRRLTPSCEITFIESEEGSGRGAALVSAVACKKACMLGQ
Assay: In vitro glucokinase activity, G6PDH-coupled spectrophotometric assay
Type: biochemical
Details: 5 mM D-glucose, 30° C.; for SC1.5 (concentration of activator that produced a 50% increase in the activity of GK): pH 7.1
Method in brief: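 GST-fused human liver GK1 from E. coli, run at 30° C. in pH 7.1 HEPES with 5 mM glucose, 1 mM ATP and 10% DMSO, coupled via G6PDH to NADH. OD340 rate measured after enzyme start; SC1.5 is the activator concentration raising activity 50% over DMSO control.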

SC1.5 (concentration of activator that produced a 50% increase in the activity of GK)	fold induction at 30 µM	Compound
4.93 µM		O=C(Nc1ccccn1)C(CC1CCCC1)N1C(=O)Cc2ccccc21 (stereo not shown) [Example 8, 3-Cyclopentyl-2-(2-oxo-2,3-dihydro-indol-1-yl)-N-pyridin-2-yl-propionamide]
4.04 µM		O=C1C(=O)N(C(CC2CCCC2)C(=O)Nc2cnccn2)c2ccc(Cl)cc21 (stereo not shown) [Example 96, 2-(5-Chloro-2,3-dioxo-2,3-dihydro-indol-1-yl)-3-cyclopentyl-N-pyrazin-2-yl-propionamide]
3.6 µM		COc1ccc2c(c1)CC(=O)N2C(CC1CCCC1)C(=O)Nc1nccs1 (stereo not shown) [Example 51, 3-Cyclopentyl-2-(5-methoxy-2-oxo-2,3-dihydro-indol-1-yl)-N-thiazol-2-yl-propionamide]
2.18 µM		O=C1C(=O)N(C(CC2CCCC2)C(=O)Nc2nccs2)c2ccc(Br)cc21 (stereo not shown) [Example 63, 2-(5-Bromo-2,3-dioxo-2,3-dihydro-indol-1-yl)-3-cyclopentyl-N-thiazol-2-yl-propionamide]
1.41 µM		CC(C)CC(C(=O)Nc1ccccn1)N1C(=O)Cc2cc(OC(F)(F)F)ccc21 (stereo not shown) [Example 43, 4-Methyl-2-(2-oxo-5-trifluoromethoxy-2,3-dihydro-indol-1-yl)-pentanoic acid pyridin-2-ylamide]
	1.47	Cn1ccc(NC(=O)C(CC2CCCC2)N2C(=O)C(=O)c3ccccc32)n1 (stereo not shown) [Example 5, 3-Cyclopentyl-2-(2,3-dioxo-2,3-dihydro-indol-1-yl)-N-(1-methyl-1H-pyrazol-3-yl)-propionamide]
7.27 µM		CC(C)CC(C(=O)Nc1ccn(C)n1)N1C(=O)Cc2ccc(Cl)cc21 (stereo not shown) [Example 116, 2-(6-Chloro-2-oxo-2,3-dihydro-indol-1-yl)-4-methyl-pentanoic acid (1-methyl-1H-pyrazol-3-yl)-amide]
5.82 µM		CC(C)CC(C(=O)Nc1nccs1)N1C(=O)Cc2cc(Br)ccc21 (stereo not shown) [Example 72, 2-(5-Bromo-2-oxo-2,3-dihydro-indol-1-yl)-4-methyl-pentanoic acid thiazol-2-ylamide]
21.28 µM		CC(C)CC(C(=O)Nc1ccn(C)n1)N1C(=O)C(=O)c2cc(OC(F)(F)F)ccc21 (stereo not shown) [Example 39, 2-(2,3-Dioxo-5-trifluoromethoxy-2,3-dihydro-indol-1-yl)-4-methyl-pentanoic acid (1-methyl-1H-pyrazol-3-yl)-amide]
3.91 µM		O=C1C(=O)N(C(CC2CCCC2)C(=O)Nc2nccs2)c2cccc(Cl)c21 (stereo not shown) [Example 16, 2-(4-Chloro-2,3-dioxo-2,3-dihydro-indol-1-yl)-3-cyclopentyl-N-thiazol-2-yl-propionamide]
	1.3	CC(C)CC(C(=O)Nc1cnccn1)N1C(=O)C(=O)c2cc(Cl)ccc21 (stereo not shown) [Example 103, 2-(5-Chloro-2,3-dioxo-2,3-dihydro-indol-1-yl)-4-methyl-pentanoic acid pyrazin-2-ylamide]
0.12 µM		O=C(Nc1ccccn1)C(CC1CCCC1)N1C(=O)Cc2ccc(Br)cc21 (stereo not shown) [Example 135, 2-(6-Bromo-2-oxo-2,3-dihydro-indol-1-yl)-3-cyclopentyl-N-pyridin-2-yl-propionamide]
1.48 µM		CC(C)CC(C(=O)Nc1nccs1)N1C(=O)Cc2ccc(Cl)cc21 (stereo not shown) [Example 115, 2-(6-Chloro-2-oxo-2,3-dihydro-indol-1-yl)-4-methyl-pentanoic acid thiazol-2-ylamide]
16.22 µM		Cc1ccc2c(c1)C(=O)C(=O)N2C(CC1CCCC1)C(=O)Nc1nccs1 (stereo not shown) [Example 79, 3-Cyclopentyl-2-(5-methyl-2,3-dioxo-2,3-dihydro-indol-1-yl)-N-thiazol-2-yl-propionamide]
18.64 µM		O=C1C(=O)N(C(CC2CCCC2)C(=O)Nc2cnccn2)c2ccccc21 (stereo not shown) [Example 1, 3-Cyclopentyl-2-(2,3-dioxo-2,3-dihydro-indol-1-yl)-N-pyrazin-2-yl-propionamide]
1.74 µM		COc1ccc2c(c1)CC(=O)N2C(CC1CCCC1)C(=O)Nc1ccccn1 (stereo not shown) [Example 49, 3-Cyclopentyl-2-(5-methoxy-2-oxo-2,3-dihydro-indol-1-yl)-N-pyridin-2-yl-propionamide]
0.95 µM		O=C1C(=O)N(C(CC2CCCC2)C(=O)Nc2ccccn2)c2ccc(Br)cc21 (stereo not shown) [Example 61, 2-(5-Bromo-2,3-dioxo-2,3-dihydro-indol-1-yl)-3-cyclopentyl-N-pyridin-2-yl-propionamide]
0.76 µM		O=C1C(=O)N(C(CC2CCCC2)C(=O)Nc2nccs2)c2ccc(OC(F)(F)F)cc21 (stereo not shown) [Example 32, 3-Cyclopentyl-2-(2,3-dioxo-5-trifluoromethoxy-2,3-dihydro-indol-1-yl)-N-thiazol-2-yl-propionamide]
	1.29	Cc1ccc2c(c1)C(=O)C(=O)N2C(CC(C)C)C(=O)Nc1cnccn1 (stereo not shown) [Example 84, 4-Methyl-2-(5-methyl-2,3-dioxo-2,3-dihydro-indol-1-yl)-pentanoic acid pyrazin-2-ylamide]
1.23 µM		O=C(Nc1ccccn1)C(CC1CCCC1)N1C(=O)Cc2c(Cl)cccc21 (stereo not shown) [Example 21, 2-(4-Chloro-2-oxo-2,3-dihydro-indol-1-yl)-3-cyclopentyl-N-pyridin-2-yl-propionamide]
	1.22	CC(C)CC(C(=O)Nc1ccn(C)n1)N1C(=O)Cc2cc(Cl)ccc21 (stereo not shown) [Example 107, 2-(5-Chloro-2-oxo-2,3-dihydro-indol-1-yl)-4-methyl-pentanoic acid (1-methyl-1H-pyrazol-3-yl)-amide]
0.9 µM		O=C1C(=O)N(C(CC2CCCC2)C(=O)Nc2cnccn2)c2cc(Cl)ccc21 (stereo not shown) [Example 120, 2-(6-Chloro-2,3-dioxo-2,3-dihydro-indol-1-yl)-3-cyclopentyl-N-pyrazin-2-yl-propionamide]
22.77 µM		Cc1ccc2c(c1)C(=O)C(=O)N2C(CC1CCCC1)C(=O)Nc1cnccn1 (stereo not shown) [Example 76, 3-Cyclopentyl-2-(5-methyl-2,3-dioxo-2,3-dihydro-indol-1-yl)-N-pyrazin-2-yl-propionamide]
1.84 µM		O=C(Nc1cnccn1)C(CC1CCCC1)N1C(=O)Cc2cc(Cl)ccc21 (stereo not shown) [Example 97, 2-(5-Chloro-2-oxo-2,3-dihydro-indol-1-yl)-3-cyclopentyl-N-pyrazin-2-yl-propionamide]
	1.24	CC(C)CC(C(=O)Nc1ccn(C)n1)N1C(=O)C(=O)c2c(Cl)cccc21 (stereo not shown) [Example 19, 2-(4-Chloro-2,3-dioxo-2,3-dihydro-indol-1-yl)-4-methyl-pentanoic acid (1-methyl-1H-pyrazol-3-yl)-amide]
